Measurements reported in US20210395645A1, “CLEANING LIQUID” (FUJIFILM Electronic Materials Co., Ltd., priority 2019, published 2021).

Excerpt: The following compounds were used as chelating agents in manufacture of cleaning liquids.

Structure (SMILES)	pKa1	pKa2	pKa3	pKa4	pKa5	pKa6	pKa7	pKa8
O=C(O)CN(CCN(CC(=O)O)CC(=O)O)CCN(CC(=O)O)CC(=O)O [DTPA, Diethylenetriaminepentaacetic acid]	2.14	2.38	4.26	8.60	10.53	–	–	–
NCCC(=O)O [ALA, β-Alanine]	2.35	9.87	–	–	–	–	–	–
N=C(N)NCCC[C@H](N)C(=O)O [Arginine]	1.82	9.01	12.48	–	–	–	–	–
O=C(O)CC(O)(CC(=O)O)C(=O)O [Citric acid]	–	–	6.71	–	–	–	–	–

Second part, the compound after the results:

pKa1	pKa2	pKa3	pKa4	pKa5	pKa6	pKa7	pKa8	Structure (SMILES)
–	7.40	–	–	–	–	–	–	O=C(O)C(O)C(O)C(=O)O (stereo not drawn) [Tartaric acid]
2.00	2.70	6.2	10.30	–	–	–	–	O=C(O)CN(CCN(CC(=O)O)CC(=O)O)CC(=O)O [EDTA, Ethylenediaminetetraacetic acid]
1.35	2.87	7.03	11.3	–	–	–	–	CC(O)(P(=O)(O)O)P(=O)(O)O [HEDP, 1-Hydroxyethylidene-1,1′-diphosphonic acid]
2.35	9.78	–	–	–	–	–	–	NCC(=O)O [Gly, Glycine]
1.46	2.72	5.06	6.18	6.63	7.43	9.22	10.6	O=P(O)(O)CN(CCN(CP(=O)(O)O)CP(=O)(O)O)CP(=O)(O)O [EDTPO, N,N,N′,N′-Ethylenediaminetetrakis(methylenephosphonic acid)]
